Test results published in ChEMBL document CHEMBL4219199, “Synthesis and evaluation of aminobenzothiazoles as blockers of N- and T-type calcium channels” (Bioorg Med Chem, 2018).
pEC50, pIC50: −log10 of the molar value.

Columns and labels:
[1] = molecular target: Voltage-dependent T-type calcium channel subunit alpha-1H (Homo sapiens, UniProt O95180); assay: Inhibition of recombinant human Cav3.2-alpha1 expressed in HEK293T cells assessed as decrease in KCl-induced calcium mobilization measured after 600 secs post compound addition and 300 secs post KCl addition by calcium 4 dye-based FLIPR assay; assay type: cell-based
[2] = molecular target: Voltage-dependent N-type calcium channel subunit alpha-1B (Homo sapiens, UniProt Q00975); assay: Inhibition of Cav2.2 in human SH-SY5Y cells assessed as decrease in KCl-induced calcium mobilization measured after 600 secs post compound addition and 300 secs post KCl addition in presence of CaV1 blocker nifedipine by calcium 4 dye-based FLIPR assay; assay type: cell-based
[3] = Metabolic stability in rat plasma assessed as parent compound remaining at 120 uM after 24 hrs by HPLC analysis relative to control; assay type: ADME, cell-free; conditions: read-out: Stability
[4] = Half life in rat plasma; assay type: ADME, cell-free
[5] = molecular target: Voltage-dependent N-type calcium channel subunit alpha-1B (Rattus norvegicus, UniProt Q02294); assay: Displacement of [125I]GVIA from rat brain membrane Cav2.2 after 1 hr by gamma counting method

Chain of Voltage-dependent T-type calcium channel subunit alpha-1H (O95180 whole entry): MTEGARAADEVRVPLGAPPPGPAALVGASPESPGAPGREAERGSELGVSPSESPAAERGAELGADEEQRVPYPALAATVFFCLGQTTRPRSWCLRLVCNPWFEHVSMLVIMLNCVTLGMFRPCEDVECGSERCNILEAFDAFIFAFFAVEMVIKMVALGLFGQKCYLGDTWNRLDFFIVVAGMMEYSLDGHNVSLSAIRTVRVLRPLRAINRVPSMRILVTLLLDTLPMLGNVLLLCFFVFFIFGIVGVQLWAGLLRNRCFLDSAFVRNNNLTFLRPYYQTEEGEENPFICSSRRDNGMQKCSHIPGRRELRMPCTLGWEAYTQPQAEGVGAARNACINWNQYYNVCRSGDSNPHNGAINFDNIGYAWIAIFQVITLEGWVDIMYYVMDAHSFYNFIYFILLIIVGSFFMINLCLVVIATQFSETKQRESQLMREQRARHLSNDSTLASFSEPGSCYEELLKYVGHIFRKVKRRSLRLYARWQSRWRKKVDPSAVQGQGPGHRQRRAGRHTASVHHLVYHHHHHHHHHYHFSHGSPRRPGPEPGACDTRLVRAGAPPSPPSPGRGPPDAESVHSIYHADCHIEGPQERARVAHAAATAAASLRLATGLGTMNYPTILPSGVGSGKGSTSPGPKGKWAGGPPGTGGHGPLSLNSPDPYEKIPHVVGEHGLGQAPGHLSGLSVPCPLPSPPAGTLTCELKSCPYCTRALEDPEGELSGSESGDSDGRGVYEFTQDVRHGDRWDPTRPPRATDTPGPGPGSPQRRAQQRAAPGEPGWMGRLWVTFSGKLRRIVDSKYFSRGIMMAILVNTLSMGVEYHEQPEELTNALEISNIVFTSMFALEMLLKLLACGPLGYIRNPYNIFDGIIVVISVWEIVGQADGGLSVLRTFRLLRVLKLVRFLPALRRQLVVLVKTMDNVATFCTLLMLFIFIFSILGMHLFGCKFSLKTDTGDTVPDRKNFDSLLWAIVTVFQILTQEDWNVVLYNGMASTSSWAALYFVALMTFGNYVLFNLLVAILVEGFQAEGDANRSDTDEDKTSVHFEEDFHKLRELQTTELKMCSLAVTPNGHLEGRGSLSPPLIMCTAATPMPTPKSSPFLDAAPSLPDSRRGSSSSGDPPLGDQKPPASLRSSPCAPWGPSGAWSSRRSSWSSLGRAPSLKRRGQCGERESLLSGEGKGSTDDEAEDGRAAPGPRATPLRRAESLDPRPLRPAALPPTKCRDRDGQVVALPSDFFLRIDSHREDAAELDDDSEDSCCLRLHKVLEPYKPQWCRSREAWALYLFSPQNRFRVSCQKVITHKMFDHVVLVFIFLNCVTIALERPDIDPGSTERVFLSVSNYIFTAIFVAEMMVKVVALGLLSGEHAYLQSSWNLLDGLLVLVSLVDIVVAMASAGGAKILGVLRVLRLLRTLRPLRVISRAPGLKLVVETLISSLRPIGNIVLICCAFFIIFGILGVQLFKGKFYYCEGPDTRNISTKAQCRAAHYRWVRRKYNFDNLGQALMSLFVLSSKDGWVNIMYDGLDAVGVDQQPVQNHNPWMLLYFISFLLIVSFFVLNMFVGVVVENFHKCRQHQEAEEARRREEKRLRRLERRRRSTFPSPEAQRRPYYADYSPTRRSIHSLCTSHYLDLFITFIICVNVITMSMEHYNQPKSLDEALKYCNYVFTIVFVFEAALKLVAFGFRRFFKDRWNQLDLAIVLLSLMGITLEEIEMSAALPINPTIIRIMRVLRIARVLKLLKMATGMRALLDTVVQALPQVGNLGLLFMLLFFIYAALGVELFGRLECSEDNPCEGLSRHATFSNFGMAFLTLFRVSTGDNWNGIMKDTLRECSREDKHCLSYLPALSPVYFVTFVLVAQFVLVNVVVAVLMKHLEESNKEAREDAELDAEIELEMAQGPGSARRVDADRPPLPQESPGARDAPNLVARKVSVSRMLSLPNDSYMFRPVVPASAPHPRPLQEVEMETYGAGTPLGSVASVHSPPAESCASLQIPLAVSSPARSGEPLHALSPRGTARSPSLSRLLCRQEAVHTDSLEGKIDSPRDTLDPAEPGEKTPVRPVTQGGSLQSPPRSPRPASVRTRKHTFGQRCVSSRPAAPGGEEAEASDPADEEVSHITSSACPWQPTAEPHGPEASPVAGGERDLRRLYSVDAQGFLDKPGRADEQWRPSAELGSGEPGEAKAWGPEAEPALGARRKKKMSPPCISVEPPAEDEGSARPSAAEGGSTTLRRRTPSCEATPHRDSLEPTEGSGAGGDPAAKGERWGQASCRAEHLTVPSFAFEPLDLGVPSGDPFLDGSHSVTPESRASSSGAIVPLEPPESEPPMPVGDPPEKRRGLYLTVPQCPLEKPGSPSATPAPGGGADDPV
Chain of Voltage-dependent N-type calcium channel subunit alpha-1B (Homo sapiens, UniProt Q00975) (Q00975 whole entry): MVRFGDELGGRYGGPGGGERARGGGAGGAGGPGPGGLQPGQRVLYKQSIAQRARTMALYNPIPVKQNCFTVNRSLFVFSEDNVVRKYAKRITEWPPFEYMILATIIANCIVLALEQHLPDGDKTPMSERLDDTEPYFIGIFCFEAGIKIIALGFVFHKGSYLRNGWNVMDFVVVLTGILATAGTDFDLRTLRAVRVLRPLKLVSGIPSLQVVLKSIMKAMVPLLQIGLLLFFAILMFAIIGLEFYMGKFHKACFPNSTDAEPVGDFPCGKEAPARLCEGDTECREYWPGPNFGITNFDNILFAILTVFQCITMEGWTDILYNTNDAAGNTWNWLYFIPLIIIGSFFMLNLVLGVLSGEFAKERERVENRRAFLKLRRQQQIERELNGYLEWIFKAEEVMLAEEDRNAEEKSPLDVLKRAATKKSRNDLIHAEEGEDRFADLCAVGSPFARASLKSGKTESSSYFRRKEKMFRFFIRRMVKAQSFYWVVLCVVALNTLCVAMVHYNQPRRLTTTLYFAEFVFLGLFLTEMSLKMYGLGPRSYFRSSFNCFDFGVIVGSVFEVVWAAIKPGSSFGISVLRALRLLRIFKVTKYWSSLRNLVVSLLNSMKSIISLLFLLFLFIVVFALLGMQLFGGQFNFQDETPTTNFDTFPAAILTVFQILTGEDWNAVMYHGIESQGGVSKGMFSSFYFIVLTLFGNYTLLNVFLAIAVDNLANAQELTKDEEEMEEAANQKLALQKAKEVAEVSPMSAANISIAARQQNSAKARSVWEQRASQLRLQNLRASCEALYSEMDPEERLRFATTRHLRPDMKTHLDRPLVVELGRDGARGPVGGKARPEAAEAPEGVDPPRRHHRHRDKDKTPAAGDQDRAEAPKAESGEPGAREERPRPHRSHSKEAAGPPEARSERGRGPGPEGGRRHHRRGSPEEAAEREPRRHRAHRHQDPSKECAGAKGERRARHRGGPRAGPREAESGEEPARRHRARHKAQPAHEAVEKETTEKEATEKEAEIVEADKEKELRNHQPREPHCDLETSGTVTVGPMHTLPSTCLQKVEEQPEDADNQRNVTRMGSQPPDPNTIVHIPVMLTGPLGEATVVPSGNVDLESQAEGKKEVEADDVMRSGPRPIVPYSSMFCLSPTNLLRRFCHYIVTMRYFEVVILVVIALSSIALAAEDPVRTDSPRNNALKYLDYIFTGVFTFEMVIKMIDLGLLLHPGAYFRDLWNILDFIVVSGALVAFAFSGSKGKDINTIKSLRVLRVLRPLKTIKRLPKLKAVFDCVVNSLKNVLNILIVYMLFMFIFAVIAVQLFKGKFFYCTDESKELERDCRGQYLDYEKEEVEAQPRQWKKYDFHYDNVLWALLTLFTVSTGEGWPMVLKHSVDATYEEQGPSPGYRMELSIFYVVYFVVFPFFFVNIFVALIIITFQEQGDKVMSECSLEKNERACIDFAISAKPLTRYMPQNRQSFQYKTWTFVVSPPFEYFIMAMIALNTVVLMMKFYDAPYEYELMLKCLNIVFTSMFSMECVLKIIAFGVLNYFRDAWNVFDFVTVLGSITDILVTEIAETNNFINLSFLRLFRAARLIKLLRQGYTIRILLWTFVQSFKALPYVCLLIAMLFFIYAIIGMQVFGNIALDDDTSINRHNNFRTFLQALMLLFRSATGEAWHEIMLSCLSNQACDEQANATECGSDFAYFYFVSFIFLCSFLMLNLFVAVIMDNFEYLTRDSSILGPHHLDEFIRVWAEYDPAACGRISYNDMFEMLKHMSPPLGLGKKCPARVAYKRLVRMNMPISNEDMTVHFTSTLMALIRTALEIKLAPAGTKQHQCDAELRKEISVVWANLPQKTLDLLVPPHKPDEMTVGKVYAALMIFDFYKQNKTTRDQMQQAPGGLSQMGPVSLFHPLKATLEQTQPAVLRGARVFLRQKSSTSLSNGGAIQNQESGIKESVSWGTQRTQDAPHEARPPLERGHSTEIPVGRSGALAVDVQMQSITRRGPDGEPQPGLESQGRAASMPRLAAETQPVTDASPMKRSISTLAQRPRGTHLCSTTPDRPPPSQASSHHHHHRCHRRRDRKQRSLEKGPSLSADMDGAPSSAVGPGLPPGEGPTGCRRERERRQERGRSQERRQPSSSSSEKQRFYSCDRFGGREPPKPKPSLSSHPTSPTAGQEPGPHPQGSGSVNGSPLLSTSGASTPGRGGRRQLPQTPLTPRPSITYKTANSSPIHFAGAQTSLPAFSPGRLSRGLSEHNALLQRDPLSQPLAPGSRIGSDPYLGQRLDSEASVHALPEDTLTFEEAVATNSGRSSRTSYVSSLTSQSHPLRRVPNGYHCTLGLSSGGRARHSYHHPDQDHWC

SMILES	pIC50 [1]	pIC50 [2]	remaining at 24 h, 120 µM [3] [%]	half-life [4] [h]	pEC50 [5]
NCCCOc1ccc(CNc2nc3ccc(Oc4cccc(C(F)(F)F)c4)cc3s2)cc1	3.77	3.84	–	–	–
CN(Cc1ccc(OCCCN)cc1)c1nc2ccc(Oc3ccc(O)cc3)cc2s1	3.78	3.93	–	–	–
NCCCOc1ccc(CNc2nc3ccc(Oc4ccc(O)cc4)cc3s2)cc1	3.52	3.69	–	–	–
CN(Cc1ccc(OCCCNC(=N)N)cc1)c1nc2ccc(Oc3cccc(C(F)(F)F)c3)cc2s1.O=C(O)C(F)(F)F	3.11	3.69	95	> 24	–
N=C(N)NCCCOc1ccc(CNc2nc3ccc(Oc4ccc(O)cc4)cc3s2)cc1	3.50	3.60	–	–	–
CN(Cc1ccc(OCCCNC(=N)N)cc1)c1nc2ccc(Oc3ccc(F)cc3)cc2s1	3.28	4.00	–	–	–
N=C(N)NCCCOc1ccc(CNc2nc3ccc(Oc4ccc(C(F)(F)F)cc4)cc3s2)cc1.O=C(O)C(F)(F)F	3.71	3.78	91	> 24	–
N=C(N)NCCCOc1ccc(CNc2nc3ccc(Oc4cccc(C(F)(F)F)c4)cc3s2)cc1	3.57	3.89	–	–	–
CN(Cc1ccc(OCCCNC(=N)N)cc1)c1nc2ccc(Oc3ccccc3)cc2s1	3.30	3.95	–	–	–
CN(Cc1ccc(OCCCN)cc1)c1nc2ccc(Oc3ccccc3)cc2s1	4.02	4.31	–	–	–
CN(Cc1ccc(OCCCN)cc1)c1nc2ccc(Oc3cccc(C(F)(F)F)c3)cc2s1.O=C(O)C(F)(F)F	3.62	4.11	100	> 24	–
NC(N)=NCCCOc1ccc(CNc2nc3ccc(Oc4ccccc4)cc3s2)cc1	3.78	3.99	–	–	–
CN(Cc1ccc(OCCCNC(=N)N)cc1)c1nc2ccc(Oc3ccc(C#N)cc3)cc2s1	3.82	3.84	–	–	–
CN(Cc1ccc(OCCCN)cc1)c1nc2ccc(Oc3ccc(C(F)(F)F)cc3)cc2s1	3.61	3.55	–	–	–
CN(Cc1ccc(OCCCNC(=N)N)cc1)c1nc2ccc(Oc3ccc(C(F)(F)F)cc3)cc2s1	3.67	3.73	–	–	–
N=C(N)NCCCOc1ccc(CNc2nc3ccc(Oc4ccc(F)cc4)cc3s2)cc1	3.54	3.61	–	–	–
CN(Cc1ccc(OCCCNC(=N)N)cc1)c1nc2ccc(Oc3ccc(O)cc3)cc2s1	3.48	3.36	–	–	–

SMILES	pIC50 [1]	pIC50 [2]	remaining at 24 h, 120 µM [3] [%]	half-life [4] [h]	pEC50 [5]
CN(Cc1ccc(OCCCN)cc1)c1nc2ccc(Oc3ccc(C#N)cc3)cc2s1	3.48	4.19	–	–	–
CN(C)CCCOc1ccc(CN(C)c2nc3ccc(Oc4ccc(C(F)(F)F)cc4)cc3s2)cc1	4.27	4.34	–	–	–
CN(C)CCCOc1ccc(CNc2nc3ccc(Oc4ccc(F)cc4)cc3s2)cc1	< 3.00	4.40	–	–	–
CN(C)CCCOc1ccc(CNc2nc3ccc(Oc4ccc(C#N)cc4)cc3s2)cc1	4.39	3.98	–	–	–
CN(Cc1ccc(OCCCN)cc1)c1nc2ccc(Oc3ccc(F)cc3)cc2s1	3.31	4.01	–	–	–
CN(C)CCCOc1ccc(CN(C)c2nc3ccc(Oc4ccc(C#N)cc4)cc3s2)cc1	4.19	4.16	–	–	–
CC(C)[C@H]1c2ccc(F)cc2CC[C@@]1(CCN(C)CCCc1nc2ccccc2[nH]1)OC(=O)C1CC1	–	5.15	–	–	–
CN(C)CCCOc1ccc(CNc2nc3ccc(Oc4cccc(C(F)(F)F)c4)cc3s2)cc1	3.96	4.29	–	–	–
NCCCOc1ccc(CNc2nc3ccc(Oc4ccc(C(F)(F)F)cc4)cc3s2)cc1	3.95	4.23	–	–	–
NCCCOc1ccc(CNc2nc3ccc(Oc4ccc(F)cc4)cc3s2)cc1.O=C(O)C(F)(F)F	3.16	3.97	75	> 24	–
NCCCOc1ccc(CNc2nc3ccc(Oc4ccccc4)cc3s2)cc1	< 3.00	3.66	–	–	–
N#Cc1ccc(Oc2ccc3nc(NCc4ccc(OCCCNC(=N)N)cc4)sc3c2)cc1	3.49	3.43	–	–	–
N#Cc1ccc(Oc2ccc3nc(NCc4ccc(OCCCN)cc4)sc3c2)cc1	3.96	4.39	–	–	–
NCCCOc1ccccc1C(=O)N(Cc1ccc(OCCCN=C(N)N)cc1)c1nc2ccc(Oc3ccc(O)cc3)cc2s1	–	–	–	–	5.24
NCCCOc1ccc(CN(C(=O)c2ccccc2OCCCN)c2nc3ccc(Oc4ccc(O)cc4)cc3s2)cc1	–	–	–	–	5.27
O=C(CC(c1ccccc1)c1ccccc1)N1CCN(C(c2ccccc2)c2ccccc2)CC1 [Z160]	4.35	4.41	–	–	–
